The target of the experiment is T1, TarO (N-acetylglucosamine-1-phosphate transferase) (Staphylococcus aureus, UniProt Q2G060).
T1 sequence (Q2G060 1-351): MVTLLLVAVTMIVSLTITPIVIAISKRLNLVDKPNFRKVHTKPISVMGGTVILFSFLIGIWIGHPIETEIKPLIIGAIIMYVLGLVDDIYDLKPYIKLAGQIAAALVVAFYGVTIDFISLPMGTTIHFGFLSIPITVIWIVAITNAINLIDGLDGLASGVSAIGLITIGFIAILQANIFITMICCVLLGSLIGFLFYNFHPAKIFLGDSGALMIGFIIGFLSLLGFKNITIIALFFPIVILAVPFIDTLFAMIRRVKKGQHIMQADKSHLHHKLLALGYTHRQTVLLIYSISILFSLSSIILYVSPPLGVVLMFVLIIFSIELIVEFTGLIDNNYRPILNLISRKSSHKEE
The format is biochemical.

In turn, `Clc1ccccc1CN1CCc2sccc2C1` [ticlopidine] showed a concentration for half-maximal inhibition (IC50) of 238 ± 14 µM.

The values above are taken from paper PMC3552485 (ACS Chemical Biology, 2012).
